From patent publication US20220281863A1, “COMPOUNDS, COMPOSITIONS AND METHODS OF TREATING DISORDERS” (Reverie Labs, Inc., priority 2019, published 2022)

What follows are compounds tested against T1, CDK9/CycTI (Homo sapiens, UniProt P50750) (assay: In vitro kinase assay (ADP-Glo Kinase Assay Kit), CDK9/CycTI). Settings: 30 ng CDK9/CycTI, 30 μM CDKtide, 10 μM ATP, 2 hours at room temperature; 8 to 10-point dose response (Tier2); read-out: IC50 Score.
T1 construct: purchased Carna biosciences 04-110
T1 sequence (P50750 whole entry): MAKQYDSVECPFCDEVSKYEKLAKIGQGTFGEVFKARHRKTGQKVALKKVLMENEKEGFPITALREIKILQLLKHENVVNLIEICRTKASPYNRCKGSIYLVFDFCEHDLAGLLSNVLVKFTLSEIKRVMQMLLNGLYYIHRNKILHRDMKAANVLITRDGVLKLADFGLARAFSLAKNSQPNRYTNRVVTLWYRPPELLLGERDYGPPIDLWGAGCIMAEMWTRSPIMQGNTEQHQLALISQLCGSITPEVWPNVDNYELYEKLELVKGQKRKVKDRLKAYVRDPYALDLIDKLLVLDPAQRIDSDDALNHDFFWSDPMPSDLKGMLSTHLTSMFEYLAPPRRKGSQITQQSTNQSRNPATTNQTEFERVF
T1 sequence (O60563 whole entry partner): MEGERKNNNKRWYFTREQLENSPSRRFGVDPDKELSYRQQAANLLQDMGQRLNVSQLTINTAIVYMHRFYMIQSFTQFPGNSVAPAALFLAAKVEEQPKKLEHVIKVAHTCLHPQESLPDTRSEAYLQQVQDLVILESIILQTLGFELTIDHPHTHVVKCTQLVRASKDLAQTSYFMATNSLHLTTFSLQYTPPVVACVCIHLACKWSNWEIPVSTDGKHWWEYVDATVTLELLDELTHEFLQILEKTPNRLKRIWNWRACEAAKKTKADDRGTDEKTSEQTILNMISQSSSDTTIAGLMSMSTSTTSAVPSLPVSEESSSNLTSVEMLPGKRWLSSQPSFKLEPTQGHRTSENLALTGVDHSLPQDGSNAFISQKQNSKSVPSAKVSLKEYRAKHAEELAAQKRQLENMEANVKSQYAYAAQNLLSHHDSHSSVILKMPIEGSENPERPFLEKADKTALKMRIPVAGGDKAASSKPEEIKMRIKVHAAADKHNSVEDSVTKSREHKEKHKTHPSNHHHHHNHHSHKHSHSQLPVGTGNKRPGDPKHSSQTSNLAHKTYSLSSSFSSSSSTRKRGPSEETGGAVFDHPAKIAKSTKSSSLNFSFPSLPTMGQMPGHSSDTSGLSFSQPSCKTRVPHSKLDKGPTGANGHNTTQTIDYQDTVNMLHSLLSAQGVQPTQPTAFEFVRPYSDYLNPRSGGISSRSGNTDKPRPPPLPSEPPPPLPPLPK
Type: biochemical
Procedure: In vitro kinase assay was performed in white, 384-low volume plates in 5 μl reaction volume consisting of 30 ng CDK9/CycTI (Carna biosciences #04-110), 30 μM CDKtide (Signalchem #C06-58) and 10 μM ATP made in reaction buffer (40 mM Tris, pH 7.5; 20 mM MgCl2; 0.1 mg/ml BSA; 50 μM DTT) at 1 μM & 10 μM compound concentration for Tier1 assay and 8 to 10-point dose response curve for Tier2 assay. After 2 hours of incubation at room temperature, the amounts of […] in the kinase reaction were quantified using ADP-Glo™ Kinase Assay Kit (Promega #V9102). Briefly, 5 μl of ADP-Glo™ reagent was added to stop the kinase reaction and plate was incubated for 40 minutes at room temperature. Subsequently, 10 μl of Kinase Detection Reagent was added and luminescence was recorded after 30 minutes of incubation at room temperature.
The inhibition of kinase activity was determined relative to positive control (2% DMSO) and IC50 was calculated using GraphPad prism software (four parameter-variable slope equation).

Row | Compound | IC50
1 | O=C(Nc1nc2ccc3cc(F)ccc3c2s1)[C@@H]1CCN1 [Compound 85, (S)—N-(7-fluoronaphtho[2,1-d]thiazol-2-yl)azetidine-2-carboxamide] | 100 to 500 nM
2 | CC(C)(C)OC(=O)N1CC[C@@H](C(=O)Nc2nc3ccc4cc(F)ccc4c3s2)C1 [Compound 89] | 1000 to 20000 nM
3 | CN1CCC(C(=O)Nc2nc3ccc4cc(F)ccc4c3s2)C1 (stereo not shown) [Compound 65, N-(7-fluoronaphtho[2,1-d]thiazol-2-yl)-1-methylpyrrolidine-3-carboxamide] | 100 to 500 nM
4 | CC(=O)N1CCC[C@@H]1C(=O)Nc1nc2c(s1)-c1ccc(F)cc1CC2 [Compound 6, (R)-1-acetyl-N-(7-fluoro-4,5-dihydronaphtho[2,1-d]thiazol-2-yl)pyrrolidine-2-carboxamide] | 500 to 1000 nM
5 | CN1CC(C(=O)Nc2nc3ccc4cc(F)ccc4c3s2)C1 [Compound 29] | 1000 to 20000 nM
6 | O=C(Nc1nc2c(s1)-c1ccc(F)cc1CC2)[C@H]1CCC[C@@H](NS(=O)(=O)C2CC2)C1 [Compound 15-b, (1S,3R)-3-(cyclopropanesulfonamido)-N-(7-fluoro-4,5-dihydronaphtho[2,1-d]thiazol-2-yl)cyclohexane-1-carboxamide] | 500 to 1000 nM
7 | CC(=O)N1CCN(C)CC1C(=O)Nc1nc2ccc3cc(F)ccc3c2s1 (single isomer, unassigned) [Compound 32, 1-acetyl-N-(7-fluoronaphtho[2,1-d]thiazol-2-yl)-4-methylpiperazine-2-carboxamide] | 1000 to 20000 nM
8 | CC(C)(C)OC(=O)N1CC[C@@H]1C(=O)Nc1nc2ccc3cc(F)ccc3c2s1 [Compound 35, Tert-butyl (R)-2-((7-fluoronaphtho[2,1-d]thiazol-2-yl)carbamoyl)azetidine-1-carboxylate] | 1000 to 20000 nM
9 | CC(=O)N1CCNCC1C(=O)Nc1nc2ccc3cc(F)ccc3c2s1 (single isomer, unassigned) [Compound 18-b, 1-acetyl-N-(7-fluoronaphtho[2,1-d]thiazol-2-yl)piperazine-2-carboxamide] | 1000 to 20000 nM
10 | O=C(Nc1nc2ccc3ccccc3c2s1)[C@H]1CCCN1 [Compound 2, (R)—N-(naphtho[2,1-d]thiazol-2-yl)pyrrolidine-2-carboxamide] | 1000 to 20000 nM
11 | CC(=O)Nc1nc2ccc3cc(F)ccc3c2s1 [Compound 12, N-(7-fluoronaphtho[2,1-d]thiazol-2-yl)acetamide] | 100 to 500 nM
12 | O=C(Nc1nc2ccc3cc(F)ccc3c2s1)c1cn[nH]c1 [Compound 50, N-(7-fluoronaphtho[2,1-d]thiazol-2-yl)-1H-pyrazole-4-carboxamide] | 1000 to 20000 nM
13 | CC(C)(C)C(=O)N1CCC(C(=O)Nc2nc3ccc4cc(F)ccc4c3s2)CC1 [Compound 64] | 500 to 1000 nM
14 | CC(C)(C)OC(=O)N[C@H]1CCC[C@@H](C(=O)Nc2nc3ccc4cc(F)ccc4c3s2)C1 [Compound 30, Tert-butyl ((1S,3R)-3-((7-fluoronaphtho[2,1-d]thiazol-2-yl)carbamoyl)cyclohexyl) carbamate] | 100 to 500 nM
15 | CC(=O)N1CCC[C@@H](C(=O)Nc2nc3ccc4cc(F)ccc4c3s2)C1 [Compound 38, 1-acetyl-N-(7-fluoronaphtho[2,1-d]thiazol-2-yl)piperidine-3-carboxamide] | 100 to 500 nM
16 | CC(=O)N1CCC[C@H]1C(=O)Nc1nc2ccc3cc(F)ccc3c2s1 [Compound 5, (S)-1-acetyl-N-(7-fluoronaphtho[2,1-d]thiazol-2-yl)pyrrolidine-2-carboxamide] | 1000 to 20000 nM
17 | CC(=O)N(C)[C@@H]1CCC[C@H](C(=O)Nc2nc3ccc4cc(F)ccc4c3s2)C1 [Compound 22] | 100 to 500 nM
18 | C=CC(=O)N[C@@H]1CCC[C@H](C(=O)Nc2nc3ccc4cc(F)ccc4c3s2)C1 [Compound 41, (1S,3R)-3-acrylamido-N-(7-fluoronaphtho[2,1-d]thiazol-2-yl)cyclohexane-1-carboxamide] | 1 to 100 nM
19 | CC(=O)N1CCC(C(=O)Nc2nc3ccc4cc(F)ccc4c3s2)C1 (single isomer, unassigned) [Compound 82, 1-acetyl-N-(7-fluoronaphtho[2,1-d]thiazol-2-yl)pyrrolidine-3-carboxamide] | 100 to 500 nM
20 | O=C(Nc1nc2ccc3cc(F)ccc3c2s1)[C@H]1CCCO1 [Compound 10, (R)—N-(7-fluoronaphtho[2,1-d]thiazol-2-yl)tetrahydrofuran-2-carboxamide] | 100 to 500 nM
21 | CC(=O)N[C@@H]1CCC[C@@H](C(=O)Nc2nc3ccc4cc(F)ccc4c3s2)C1 [Compound 81] | 500 to 1000 nM
22 | N[C@@H]1CC[C@H](C(=O)Nc2nc3ccc4cc(F)ccc4c3s2)C1 [Compound 26] | 1 to 100 nM

Second part, the compound after the results:

Row | IC50 | Compound
23 | 1 to 100 nM | CC(=O)N1CCC(C(=O)Nc2nc3ccc4cc(F)ccc4c3s2)C1 (single isomer, unassigned) [Compound 36, 1-acetyl-N-(7-fluoronaphtho[2,1-d]thiazol-2-yl)pyrrolidine-3-carboxamide]
24 | 1 to 100 nM | CN(C)[C@@H]1CC[C@H](C(=O)Nc2nc3ccc4cc(F)ccc4c3s2)C1 [Compound 39]
25 | 1 to 100 nM | CC(=O)N1CC[C@@H]1C(=O)Nc1nc2ccc3cc(F)ccc3c2s1 [Compound 69, (R)-1-acetyl-N-(7-fluoronaphtho[2,1-d]thiazol-2-yl)azetidine-2-carboxamide]
26 | 1 to 100 nM | O=C(CCl)N[C@@H]1CCC[C@H](C(=O)Nc2nc3ccc4cc(F)ccc4c3s2)C1 [Compound 75]
27 | 1 to 100 nM | O=C(Nc1nc2ccc3cc(F)ccc3c2s1)C1CCNC1 (racemic) [Compound 83, N-(7-fluoronaphtho[2,1-d]thiazol-2-yl)pyrrolidine-3-carboxamide]
28 | 1 to 100 nM | CC(=O)N1CCC(C(=O)Nc2nc3ccc4cc(F)ccc4c3s2)C1 (racemic) [Compound 55, 1-acetyl-N-(7-fluoronaphtho[2,1-d]thiazol-2-yl)pyrrolidine-3-carboxamide]
29 | 1 to 100 nM | O=C1CC[C@@H](C(=O)Nc2nc3ccc4ccccc4c3s2)N1 [Compound 11, (S)—N-(naphtho[2,1-d]thiazol-2-yl)-5-oxopyrrolidine-2-carboxamide]
30 | 1 to 100 nM | O=C(Nc1nc2ccc3cc(F)ccc3c2s1)[C@H]1CCC[C@@H](NS(=O)(=O)C2CC2)C1 [Compound 15-a, (1S,3R)-3-(cyclopropanesulfonamido)-N-(7-fluoronaphtho[2,1-d]thiazol-2-yl)cyclohexane-1-carboxamide]
31 | 1 to 100 nM | CN1CCC(C(=O)Nc2nc3ccc4cc(F)ccc4c3s2)C1 (single isomer, unassigned) [Compound 48, N-(7-fluoronaphtho[2,1-d]thiazol-2-yl)-1-methylpyrrolidine-3-carboxamide]
32 | 1 to 100 nM | O=C1CC[C@@H](C(=O)Nc2nc3ccc4cc(F)ccc4c3s2)N1 [Compound 8, (S)—N-(7-fluoronaphtho[2,1-d]thiazol-2-yl)-5-oxopyrrolidine-2-carboxamide]
33 | 1 to 100 nM | CC(=O)N1CC[C@H](C(=O)Nc2nc3ccc4cc(F)ccc4c3s2)C1 [Compound 52, (S)-1-acetyl-N-(7-fluoronaphtho[2,1-d]thiazol-2-yl)pyrrolidine-3-carboxamide]
34 | 1 to 100 nM | CC(=O)N1CCCC[C@H]1C(=O)Nc1nc2ccc3cc(F)ccc3c2s1 [Compound 27, (S)-1-acetyl-N-(7-fluoronaphtho[2,1-d]thiazol-2-yl)piperidine-2-carboxamide]
